Data taken from ChEMBL document CHEMBL1201862, “PubChem BioAssay data set” (2004).
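Compound exposure: 48 hours, 5 concentrations, 96-well plates. Here, GI50 denotes the concentration required for 50% inhibition of growth.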 Active and inactive are the calls of the source. Rule as the data show it: active = GI50 up to about 1.1 µM and inactive = higher.

Columns and labels:
Test in all cases: growth of human tumour cells (NCI), 48 h
OVCAR-4 = system: OVCAR-4
OVCAR-3 = system: OVCAR-3
SN12C = system: SN12C
UACC-62 = system: UACC-62
U-251 = system: U-251
SW-620 = system: SW-620
UO-31 = system: UO-31
SK-OV-3 = system: SK-OV-3
A549 = system: A549
M14 = system: M14
Malme-3M = system: Malme-3M
OVCAR-5 = system: OVCAR-5
HCC 2998 = system: HCC 2998
TK-10 = system: TK-10
HOP-62 = system: HOP-62
RXF 393 = system: RXF 393
LOX IMVI = system: LOX IMVI
HT-29 = system: HT-29
A498 = system: A498
SR = system: SR

Row | SMILES | GI50 (OVCAR-4) | GI50 (OVCAR-3) | GI50 (SN12C) | GI50 (UACC-62) | GI50 (U-251) | GI50 (SW-620) | GI50 (UO-31) | GI50 (SK-OV-3) | GI50 (A549) | GI50 (M14) | GI50 (Malme-3M) | GI50 (OVCAR-5) | GI50 (HCC 2998) | GI50 (TK-10) | GI50 (HOP-62) | GI50 (RXF 393) | GI50 (LOX IMVI) | GI50 (HT-29) | GI50 (A498) | GI50 (SR)
1 | S=C1CNC(=S)CN1 | > 100 µM (inactive) | > 100 µM (inactive) | > 100 µM (inactive) | > 100 µM (inactive) | > 100 µM (inactive) | > 100 µM (inactive) | > 100 µM (inactive) | > 100 µM (inactive) | > 100 µM (inactive) | > 100 µM (inactive) | > 100 µM (inactive) | > 100 µM (inactive) | > 100 µM (inactive) | > 100 µM (inactive) | > 100 µM (inactive) | > 100 µM (inactive) | > 100 µM (inactive) | > 100 µM (inactive) | > 100 µM (inactive) | > 100 µM (inactive)
2 | O=c1[nH]c2c(Nc3c4ccccc4nc4ccccc34)c([N+](=O)[O-])c(Nc3c4ccccc4nc4ccccc34)c([N+](=O)[O-])c2[nH]1 | 2.35 µM (inactive) | 2.15 µM (inactive) | 1.45 µM (inactive) | 1.39 µM (inactive) | 2.33 µM (inactive) | 1.17 µM (inactive) | 1.24 µM (inactive) | 3.03 µM (inactive) | 1.55 µM (inactive) | 1.84 µM (inactive) | 1.57 µM (inactive) | 1.8 µM (inactive) | 1.73 µM (inactive) | 2.11 µM (inactive) | 1.69 µM (inactive) | 2.42 µM (inactive) | 1.52 µM (inactive) | 0.618 µM (active) | 1.32 µM (inactive) | 0.741 µM (active)
3 | NS(=O)(=O)c1cc(Cl)c(NC(=S)NC(=O)Nc2ccc(Cl)c(Cl)c2)c(Cl)c1 | 47.4 µM (inactive) | 39.6 µM (inactive) | 36.8 µM (inactive) | 23.1 µM (inactive) | 37.2 µM (inactive) | 58.1 µM (inactive) | 44.1 µM (inactive) | 77.4 µM (inactive) | 30.5 µM (inactive) | 27.5 µM (inactive) | 68.1 µM (inactive) | 80.5 µM (inactive) | 59.2 µM (inactive) | 47.4 µM (inactive) | > 100 µM (inactive) | 41.3 µM (inactive) | 40.3 µM (inactive) | 46.8 µM (inactive) | 26.7 µM (inactive) | 36.2 µM (inactive)
4 | CCCCCCCCCC1(N=[N+]=[N-])C(=O)c2ccccc2N(C)C1=O (stereo unspecified) | 67.1 µM (inactive) | 25 µM (inactive) | 26.1 µM (inactive) | 17.3 µM (inactive) | 2.22 µM (inactive) | 19.3 µM (inactive) | 19.4 µM (inactive) | 25.1 µM (inactive) | 25.5 µM (inactive) | 27 µM (inactive) | 28.1 µM (inactive) | 31.9 µM (inactive) | 33 µM (inactive) | 32.3 µM (inactive) | 35.8 µM (inactive) | 22.6 µM (inactive) | 15.3 µM (inactive) | 30.4 µM (inactive) | 20.8 µM (inactive) | 35.4 µM (inactive)
5 | Cc1c(CN2CCN(C)CC2)c(CN2CCN(C)CC2)c(C)n1-c1ccc(Cl)cc1 | 79.1 µM (inactive) | 94.8 µM (inactive) | > 100 µM (inactive) | 16.7 µM (inactive) | 40.2 µM (inactive) | 54.2 µM (inactive) | 26.9 µM (inactive) | > 100 µM (inactive) | 30.4 µM (inactive) | 14.6 µM (inactive) | 20.9 µM (inactive) | 53.7 µM (inactive) | 39.7 µM (inactive) | 17.5 µM (inactive) | 35.4 µM (inactive) | 17.1 µM (inactive) | – | 18.2 µM (inactive) | 13.6 µM (inactive) | 17.4 µM (inactive)
6 | N#CC12C(=O)N=C(N)C1(C#N)C(c1ccco1)NC1=C2CCCC1 (stereo unspecified) | > 100 µM (inactive) | – | > 100 µM (inactive) | > 100 µM (inactive) | > 100 µM (inactive) | > 100 µM (inactive) | > 100 µM (inactive) | > 100 µM (inactive) | > 100 µM (inactive) | > 100 µM (inactive) | > 100 µM (inactive) | > 100 µM (inactive) | > 100 µM (inactive) | > 100 µM (inactive) | > 100 µM (inactive) | > 100 µM (inactive) | > 100 µM (inactive) | > 100 µM (inactive) | > 100 µM (inactive) | > 100 µM (inactive)
7 | CCCCCN1CCN(c2ncccn2)CC1 | > 100 µM (inactive) | > 100 µM (inactive) | > 100 µM (inactive) | > 100 µM (inactive) | > 100 µM (inactive) | > 100 µM (inactive) | > 100 µM (inactive) | – | > 100 µM (inactive) | > 100 µM (inactive) | > 100 µM (inactive) | > 100 µM (inactive) | > 100 µM (inactive) | > 100 µM (inactive) | > 100 µM (inactive) | > 100 µM (inactive) | > 100 µM (inactive) | > 100 µM (inactive) | > 100 µM (inactive) | > 100 µM (inactive)
8 | Brc1ccc(-c2cc3c(cc2C2SCCS2)OCO3)cc1 | 21.6 µM (inactive) | 16.6 µM (inactive) | 29 µM (inactive) | – | 29.7 µM (inactive) | 25.6 µM (inactive) | 18.1 µM (inactive) | 21.3 µM (inactive) | 18.2 µM (inactive) | 41.6 µM (inactive) | 45.1 µM (inactive) | 16.6 µM (inactive) | 29 µM (inactive) | 31.5 µM (inactive) | 31.4 µM (inactive) | 12.9 µM (inactive) | 0.359 µM (active) | 33.3 µM (inactive) | 19 µM (inactive) | 18.4 µM (inactive)
9 | BrCC(Br)(c1ccccc1)c1ccccc1-c1cc(-c2ccccc2)cc(-c2ccccc2)n1 (stereo unspecified) | 4.05 µM (inactive) | – | 12.3 µM (inactive) | – | 1.48 µM (inactive) | 3.16 µM (inactive) | 10.7 µM (inactive) | – | 4.71 µM (inactive) | 4.38 µM (inactive) | 3.16 µM (inactive) | 3.67 µM (inactive) | 2.05 µM (inactive) | 5.82 µM (inactive) | 3.55 µM (inactive) | 2 µM (inactive) | 2.29 µM (inactive) | 2.25 µM (inactive) | 4.48 µM (inactive) | 3.89 µM (inactive)
10 | O=C1C(=C(C(=O)c2ccccc2)C(=O)c2ccccc2)OC(c2ccccc2)=C1C(=O)c1ccccc1 | 2.79 µM (inactive) | 5.86 µM (inactive) | 3.29 µM (inactive) | 4.33 µM (inactive) | 4.46 µM (inactive) | – | 6.79 µM (inactive) | 6.93 µM (inactive) | 9.04 µM (inactive) | 7.41 µM (inactive) | 12.6 µM (inactive) | 16.9 µM (inactive) | 9.77 µM (inactive) | 9.35 µM (inactive) | 3.03 µM (inactive) | 0.122 µM (active) | 1.77 µM (inactive) | 11.7 µM (inactive) | 15.6 µM (inactive) | 2.28 µM (inactive)
11 | NC(=O)N=C(N(Cc1ccccc1)Cc1ccccc1)N(Cc1ccccc1)Cc1ccccc1 | 6.22 µM (inactive) | 5.08 µM (inactive) | 6.08 µM (inactive) | 8.39 µM (inactive) | 7.45 µM (inactive) | > 24.3 µM (inactive) | > 100 µM (inactive) | > 58.7 µM (inactive) | > 100 µM (inactive) | – | > 100 µM (inactive) | > 100 µM (inactive) | 5.22 µM (inactive) | > 65.3 µM (inactive) | 15.3 µM (inactive) | > 100 µM (inactive) | 5.89 µM (inactive) | 4 µM (inactive) | 39.8 µM (inactive) | > 100 µM (inactive)
12 | O=C1c2ccccc2C(=O)N1CCCC(=O)n1cc(F)c(=O)[nH]c1=O | > 100 µM (inactive) | > 22.7 µM (inactive) | > 26.1 µM (inactive) | 23.6 µM (inactive) | > 100 µM (inactive) | > 72.6 µM (inactive) | 11.4 µM (inactive) | > 91 µM (inactive) | 3.6 µM (inactive) | 14.5 µM (inactive) | 27.9 µM (inactive) | – | 0.82 µM (active) | > 41.2 µM (inactive) | 8.26 µM (inactive) | > 47.4 µM (inactive) | 6.18 µM (inactive) | 4.54 µM (inactive) | 4.69 µM (inactive) | 5.53 µM (inactive)
13 | O=C1CCC[C@@H]2NC[C@@H](c3ccc4c(c3)OCO4)[C@H]12 | > 25 µM (inactive) | – | > 25 µM (inactive) | > 25 µM (inactive) | > 25 µM (inactive) | – | > 25 µM (inactive) | > 25 µM (inactive) | > 25 µM (inactive) | > 25 µM (inactive) | > 25 µM (inactive) | > 25 µM (inactive) | > 25 µM (inactive) | > 25 µM (inactive) | > 25 µM (inactive) | > 25 µM (inactive) | > 25 µM (inactive) | > 25 µM (inactive) | > 25 µM (inactive) | > 25 µM (inactive)
14 | CCN(CC)CCCNC(=O)c1cc(-c2nccn2C)nc2ccccc12 | 61.2 µM (inactive) | – | > 100 µM (inactive) | > 100 µM (inactive) | > 100 µM (inactive) | > 100 µM (inactive) | 50.2 µM (inactive) | – | > 100 µM (inactive) | > 100 µM (inactive) | > 100 µM (inactive) | > 100 µM (inactive) | > 100 µM (inactive) | > 100 µM (inactive) | > 100 µM (inactive) | > 100 µM (inactive) | > 100 µM (inactive) | > 100 µM (inactive) | > 100 µM (inactive) | > 10 µM (inactive)
